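Growth conditions: 96-well plates. Treatment: test compound, 48 hours, 5 concentrations. Analysis: linear interpolation between bracketing concentrations; unreached endpoints set to highest concentration. Here, GI50 denotes the concentration required for 50% inhibition of growth. TGI denotes the concentration required for complete inhibition of growth.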
Key:
Test in all cases: growth of human tumour cells (NCI), 48 h
[1] = system: EKVX NSCLC
[2] = system: MCF7 breast
[3] = system: A549 NSCLC
[4] = system: DU-145 prostate
[5] = system: SK-MEL-28 melanoma
[6] = system: UACC-257 melanoma
[7] = system: COLO 205 colon
[8] = system: RPMI-8226 leukemia
[9] = system: M14 melanoma
[10] = system: SF-268 CNS
[11] = system: OVCAR-4 ovarian
[12] = system: ACHN renal
[13] = system: MALME-3M melanoma
[14] = system: NCI-H226 lung
[15] = system: OVCAR-5 ovarian
[16] = system: BT-549 breast
[17] = system: SK-MEL-5 melanoma
[18] = system: K-562 leukemia
[19] = system: MDA-MB-435
[20] = system: SF-295 CNS
[21] = system: SN12C renal
[22] = system: CAKI-1 renal
[23] = system: LOX IMVI melanoma
[24] = system: SK-MEL-2 melanoma
[25] = system: NCI-H460 lung
[26] = system: SF-539 CNS
[27] = system: A498 renal
[28] = system: RXF 393 renal
[29] = system: T-47D breast
[30] = system: SNB-19 CNS
[31] = system: HT29 colon
[32] = system: UACC-62 melanoma
[33] = system: MDA-MB-468 breast
[34] = system: MDA-MB-231 breast
[35] = system: NCI-H23 lung
[36] = system: HCC-2998 colon
[37] = system: IGROV1 ovarian
[38] = system: U251 CNS
[39] = system: HOP-92 NSCLC
[40] = system: MOLT-4 leukemia
[41] = system: KM12 colon
[42] = system: SW-620 colon
[43] = system: UO-31 renal
[44] = system: 786-0 renal
[45] = system: HS 578T breast
[46] = system: SK-OV-3 ovarian
[47] = system: HCT-116 colon
[48] = system: NCI/ADR-RES ovarian
[49] = system: TK-10 renal
[50] = system: PC-3 prostate
[51] = system: CCRF-CEM leukemia
[52] = system: NCI-H522 lung
[53] = system: OVCAR-3 ovarian
[54] = system: HCT-15 colon
[55] = system: HL-60(TB) leukemia
[56] = system: SNB-75 CNS
[57] = system: OVCAR-8 ovarian
[58] = system: HOP-62 NSCLC
[59] = system: SR leukemia

C/C(=N/O)c1ccc(NC(=O)CSc2nnc(-c3ccc4nc(-c5ccc(Cl)cc5)[nH]c4c3)o2)cc1
GI50 [1]: 18 µM
TGI [1]: 45.1 µM
GI50 [2]: 6.65 µM
TGI [2]: 26 µM
GI50 [3]: 8.19 µM
TGI [3]: 28.1 µM
GI50 [4]: 17.7 µM
TGI [4]: 33.3 µM
GI50 [5]: 2.23 µM
TGI [5]: 5.14 µM
GI50 [6]: 12.9 µM
TGI [6]: 29.8 µM
GI50 [7]: 22.3 µM
TGI [7]: 66.1 µM
GI50 [8]: 13.6 µM
TGI [8]: 71.5 µM
GI50 [9]: 3.38 µM
TGI [9]: 15 µM
GI50 [10]: 12.7 µM
TGI [10]: 30.5 µM
GI50 [11]: 18.7 µM
TGI [11]: 42 µM
GI50 [12]: 15.8 µM
TGI [12]: 35 µM
GI50 [13]: 1.93 µM
TGI [13]: 4.86 µM
GI50 [14]: 13.5 µM
TGI [14]: 32.8 µM
GI50 [15]: 17.8 µM
TGI [15]: 36.1 µM
GI50 [16]: 4.36 µM
TGI [16]: 20.5 µM
GI50 [17]: 5.47 µM
TGI [17]: 18.2 µM
GI50 [18]: 3.39 µM
TGI [18]: > 100 µM
GI50 [19]: 3.79 µM
TGI [19]: 15 µM
GI50 [20]: 12.9 µM
TGI [20]: 28.9 µM
GI50 [21]: 4.04 µM
TGI [21]: 15.5 µM
GI50 [22]: 12.3 µM
TGI [22]: 28.5 µM
GI50 [23]: 1.94 µM
TGI [23]: 4.05 µM
GI50 [24]: 13.2 µM
TGI [24]: 27.8 µM
GI50 [25]: 12.7 µM
TGI [25]: 32.4 µM
GI50 [26]: 10.2 µM
TGI [26]: 22.1 µM
GI50 [27]: 21.3 µM
TGI [27]: 37.1 µM
GI50 [28]: 2.38 µM
TGI [28]: 8.16 µM
GI50 [29]: 17.3 µM
TGI [29]: 41.9 µM
GI50 [30]: 12 µM
TGI [30]: 25.7 µM
GI50 [31]: 9.34 µM
TGI [31]: 29.8 µM
GI50 [32]: 3.09 µM
TGI [32]: 11.1 µM
GI50 [33]: 18.5 µM
TGI [33]: 33.7 µM
GI50 [34]: 2.22 µM
TGI [34]: 5.35 µM
GI50 [35]: 3.43 µM
TGI [35]: 16.7 µM
GI50 [36]: 43.2 µM
TGI [36]: > 100 µM
GI50 [37]: 16.2 µM
TGI [37]: 30.5 µM
GI50 [38]: 3.03 µM
TGI [38]: 8.87 µM
GI50 [39]: 3.12 µM
TGI [39]: 9.48 µM
GI50 [40]: 3.66 µM
TGI [40]: > 100 µM
GI50 [41]: 16.7 µM
TGI [41]: 43 µM
GI50 [42]: 22 µM
TGI [42]: 59.5 µM
GI50 [43]: 24.8 µM
TGI [43]: > 100 µM
GI50 [44]: 3.36 µM
TGI [44]: 11.8 µM
GI50 [45]: 3.63 µM
TGI [45]: 28.6 µM
GI50 [46]: 20.4 µM
TGI [46]: 39.4 µM
GI50 [47]: 4.78 µM
TGI [47]: 37.7 µM
GI50 [48]: > 100 µM
TGI [48]: > 100 µM
GI50 [49]: 28.4 µM
TGI [49]: 56.4 µM
GI50 [50]: 3.6 µM
TGI [50]: 16.3 µM
GI50 [51]: 3.05 µM
TGI [51]: > 100 µM
GI50 [52]: 3.48 µM
TGI [52]: 17.2 µM
GI50 [53]: 18.8 µM
TGI [53]: 38 µM
GI50 [54]: 56.9 µM
TGI [54]: > 100 µM
GI50 [55]: 13.8 µM
TGI [55]: > 100 µM
GI50 [56]: 5.87 µM
TGI [56]: 22.8 µM
GI50 [57]: 3.29 µM
TGI [57]: 15.1 µM
GI50 [58]: 2.57 µM
TGI [58]: 8.69 µM

COc1cccc(NC(=O)c2ccc(NC(=O)CCl)s2)c1
GI50 [1]: 26.4 µM
TGI [1]: > 100 µM
GI50 [2]: 20.1 µM
TGI [2]: 66.4 µM
GI50 [3]: 21.7 µM
TGI [3]: 53.9 µM
GI50 [4]: 36.4 µM
TGI [4]: > 100 µM
GI50 [5]: 20.6 µM
TGI [5]: 52.6 µM
GI50 [6]: 55.3 µM
TGI [6]: > 100 µM
GI50 [7]: 27.9 µM
TGI [7]: 70.8 µM
GI50 [8]: 18.7 µM
TGI [8]: 46.8 µM
GI50 [9]: 16.3 µM
TGI [9]: 39.4 µM
GI50 [10]: 25 µM
TGI [10]: > 100 µM
GI50 [11]: 39.2 µM
TGI [11]: > 100 µM
GI50 [12]: 17.4 µM
TGI [12]: 35.9 µM
GI50 [13]: 12.5 µM
TGI [13]: 28.5 µM
GI50 [14]: 15.8 µM
TGI [14]: 39.2 µM
GI50 [15]: 21 µM
TGI [15]: 46.8 µM
GI50 [16]: 12.2 µM
TGI [16]: 29.1 µM
GI50 [17]: 17.4 µM
TGI [17]: 34.6 µM
GI50 [18]: 16.4 µM
TGI [18]: > 100 µM
GI50 [19]: 18.6 µM
TGI [19]: 60.9 µM
GI50 [20]: 46.6 µM
TGI [20]: > 100 µM
GI50 [21]: 16.1 µM
TGI [21]: 33.2 µM
GI50 [22]: 16.1 µM
TGI [22]: 42 µM
GI50 [23]: 11.4 µM
TGI [23]: 25.1 µM
GI50 [24]: 28.6 µM
TGI [24]: > 100 µM
GI50 [25]: 20.8 µM
TGI [25]: 45.2 µM
GI50 [26]: 16.7 µM
TGI [26]: 31 µM
GI50 [59]: 4.92 µM
TGI [59]: 56.2 µM
GI50 [27]: > 100 µM
TGI [27]: > 100 µM
GI50 [28]: 13.6 µM
TGI [28]: 36.9 µM
GI50 [29]: 34.5 µM
TGI [29]: > 100 µM
GI50 [30]: 21.8 µM
TGI [30]: 65.8 µM
GI50 [31]: 20.3 µM
TGI [31]: 44.2 µM
GI50 [32]: 15.3 µM
TGI [32]: 29.2 µM
GI50 [33]: 14.2 µM
TGI [33]: 30.6 µM
GI50 [34]: 15.6 µM
TGI [34]: 32.6 µM
GI50 [35]: 17.2 µM
TGI [35]: 35.5 µM
GI50 [36]: 47.8 µM
TGI [36]: > 100 µM
GI50 [37]: 16.8 µM
TGI [37]: 35.5 µM
GI50 [38]: 16.8 µM
TGI [38]: 31.5 µM
GI50 [39]: 15.4 µM
TGI [39]: 34.7 µM
GI50 [40]: 12.5 µM
TGI [40]: 55.8 µM
GI50 [41]: 21.2 µM
TGI [41]: 54.1 µM
GI50 [42]: 13.4 µM
TGI [42]: 30.5 µM
GI50 [43]: 13.7 µM
TGI [43]: 27.6 µM
GI50 [44]: 17.1 µM
TGI [44]: 33 µM
GI50 [45]: 20.3 µM
TGI [45]: 61.1 µM
GI50 [46]: 27 µM
TGI [46]: 66.5 µM
GI50 [47]: 22.4 µM
TGI [47]: 88.9 µM
GI50 [49]: > 100 µM
TGI [49]: > 100 µM
GI50 [50]: 14.9 µM
TGI [50]: 34.9 µM
GI50 [51]: 6.87 µM
TGI [51]: 51.2 µM
GI50 [52]: 13.9 µM
TGI [52]: 30.8 µM
GI50 [53]: 16.7 µM
TGI [53]: 33.8 µM
GI50 [54]: 11.3 µM
TGI [54]: 40.5 µM
GI50 [55]: 17.4 µM
TGI [55]: 99 µM
GI50 [56]: 11.7 µM
TGI [56]: > 100 µM
GI50 [57]: 18.5 µM
TGI [57]: 39.3 µM
GI50 [58]: 56.7 µM
TGI [58]: > 100 µM

From PubChem BioAssay (NCI)
